US9943519B2, “Pharmaceutical compounds” (F.HOFFMANN-LA ROCHE AG, priority 2006, dated 2018)

Assays:
Format in all cases: biochemical
Conditions in all cases: ratio of IC50 values, SPA, purified human PI3K isoforms
[1] = target: human PI3K isoform beta (p110 beta) (Homo sapiens, UniProt P42338); experiment: p110 isoform selectivity scintillation proximity assay (beta)
Description: (§1) Binding of compounds of the invention from above Tables 1a and 1b to purified preparations of p110 isoforms alpha, beta, delta, and gamma was measured by a Scintillation Proximity Assay (SPA) to determine binding activity (IC50 μMol) and selectivity of binding of beta, delta, and gamma isoforms relative to alpha (Example 8). These values are expressed in Table 2.
(§2) The ability of representative compounds from Tables 1a and 1b to inhibit the lipid kinase activity of purified preparations of human PI3K isoforms alpha, beta, delta, and gamma was determined by a radiometric scintillation proximity assay (SPA, GE Healthcare, Amersham Biosciences). Concentration dependent inhibition at 50% (IC50 μMol) was determined for all four isoforms […] and fold potency over beta, delta, and gamma relative to alpha was calculated for a selection of compounds in Table 2. Each compound has a p110 alpha IC50<1 μMol.

[2] = target: human PI3K isoform delta (p110 delta) (Homo sapiens, UniProt O00329); experiment: p110 isoform selectivity scintillation proximity assay (delta)
Description: as §1, §2

[3] = target: human PI3K isoform gamma (p110 gamma) (Homo sapiens, UniProt P48736); experiment: p110 isoform selectivity scintillation proximity assay (gamma)
Description: as §1, §2

human PI3K isoform delta (p110 delta), sequence (O00329 whole entry, canonical isoform): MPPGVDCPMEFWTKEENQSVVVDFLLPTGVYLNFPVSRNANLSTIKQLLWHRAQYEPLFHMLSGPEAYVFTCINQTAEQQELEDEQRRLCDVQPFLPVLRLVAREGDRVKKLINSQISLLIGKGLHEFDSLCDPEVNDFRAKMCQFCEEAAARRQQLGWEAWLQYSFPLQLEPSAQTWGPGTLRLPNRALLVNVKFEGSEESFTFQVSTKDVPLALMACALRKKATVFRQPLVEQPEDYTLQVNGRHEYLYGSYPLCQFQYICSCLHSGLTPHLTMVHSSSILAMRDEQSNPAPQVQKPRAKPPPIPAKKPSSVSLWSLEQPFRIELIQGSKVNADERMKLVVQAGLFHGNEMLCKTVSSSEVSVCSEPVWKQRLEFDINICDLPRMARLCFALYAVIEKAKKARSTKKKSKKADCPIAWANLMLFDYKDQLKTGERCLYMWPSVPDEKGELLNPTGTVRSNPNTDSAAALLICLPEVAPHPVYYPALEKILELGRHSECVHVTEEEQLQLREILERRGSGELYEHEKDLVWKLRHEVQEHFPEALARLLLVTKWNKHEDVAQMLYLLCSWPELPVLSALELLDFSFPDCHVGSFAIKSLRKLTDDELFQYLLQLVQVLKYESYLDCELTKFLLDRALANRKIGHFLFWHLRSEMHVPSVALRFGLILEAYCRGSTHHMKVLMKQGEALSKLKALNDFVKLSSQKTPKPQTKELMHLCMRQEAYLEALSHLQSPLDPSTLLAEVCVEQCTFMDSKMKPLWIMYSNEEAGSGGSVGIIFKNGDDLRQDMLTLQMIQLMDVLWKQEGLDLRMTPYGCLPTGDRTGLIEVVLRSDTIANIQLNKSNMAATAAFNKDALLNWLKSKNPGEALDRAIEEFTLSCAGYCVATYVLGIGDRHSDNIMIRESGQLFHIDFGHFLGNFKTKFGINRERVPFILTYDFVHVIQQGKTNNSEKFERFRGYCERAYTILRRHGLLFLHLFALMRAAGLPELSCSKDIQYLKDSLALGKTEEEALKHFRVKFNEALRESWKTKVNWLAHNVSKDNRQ
human PI3K isoform delta (p110 delta), sequence (P27986 whole entry partner, canonical isoform): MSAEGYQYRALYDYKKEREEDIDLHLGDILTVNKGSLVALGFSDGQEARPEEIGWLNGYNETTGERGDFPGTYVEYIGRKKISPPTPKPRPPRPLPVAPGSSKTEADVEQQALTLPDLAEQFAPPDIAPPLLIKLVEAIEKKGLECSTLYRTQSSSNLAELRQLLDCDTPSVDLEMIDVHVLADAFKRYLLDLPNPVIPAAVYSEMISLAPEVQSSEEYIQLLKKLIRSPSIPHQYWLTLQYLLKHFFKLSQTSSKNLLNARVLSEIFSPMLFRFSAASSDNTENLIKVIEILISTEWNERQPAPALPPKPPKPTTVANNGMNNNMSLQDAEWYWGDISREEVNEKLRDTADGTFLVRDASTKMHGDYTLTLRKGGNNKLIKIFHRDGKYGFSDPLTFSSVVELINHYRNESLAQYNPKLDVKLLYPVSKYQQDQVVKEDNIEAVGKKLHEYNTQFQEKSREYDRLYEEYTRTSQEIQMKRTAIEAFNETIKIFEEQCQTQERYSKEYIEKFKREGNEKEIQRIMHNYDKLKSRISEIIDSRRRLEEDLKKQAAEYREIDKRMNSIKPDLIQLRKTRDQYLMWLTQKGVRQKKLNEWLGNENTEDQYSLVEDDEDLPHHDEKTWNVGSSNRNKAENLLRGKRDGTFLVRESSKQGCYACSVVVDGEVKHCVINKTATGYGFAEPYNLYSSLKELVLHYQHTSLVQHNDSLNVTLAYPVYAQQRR
human PI3K isoform gamma (p110 gamma), sequence (P48736 whole entry, canonical isoform): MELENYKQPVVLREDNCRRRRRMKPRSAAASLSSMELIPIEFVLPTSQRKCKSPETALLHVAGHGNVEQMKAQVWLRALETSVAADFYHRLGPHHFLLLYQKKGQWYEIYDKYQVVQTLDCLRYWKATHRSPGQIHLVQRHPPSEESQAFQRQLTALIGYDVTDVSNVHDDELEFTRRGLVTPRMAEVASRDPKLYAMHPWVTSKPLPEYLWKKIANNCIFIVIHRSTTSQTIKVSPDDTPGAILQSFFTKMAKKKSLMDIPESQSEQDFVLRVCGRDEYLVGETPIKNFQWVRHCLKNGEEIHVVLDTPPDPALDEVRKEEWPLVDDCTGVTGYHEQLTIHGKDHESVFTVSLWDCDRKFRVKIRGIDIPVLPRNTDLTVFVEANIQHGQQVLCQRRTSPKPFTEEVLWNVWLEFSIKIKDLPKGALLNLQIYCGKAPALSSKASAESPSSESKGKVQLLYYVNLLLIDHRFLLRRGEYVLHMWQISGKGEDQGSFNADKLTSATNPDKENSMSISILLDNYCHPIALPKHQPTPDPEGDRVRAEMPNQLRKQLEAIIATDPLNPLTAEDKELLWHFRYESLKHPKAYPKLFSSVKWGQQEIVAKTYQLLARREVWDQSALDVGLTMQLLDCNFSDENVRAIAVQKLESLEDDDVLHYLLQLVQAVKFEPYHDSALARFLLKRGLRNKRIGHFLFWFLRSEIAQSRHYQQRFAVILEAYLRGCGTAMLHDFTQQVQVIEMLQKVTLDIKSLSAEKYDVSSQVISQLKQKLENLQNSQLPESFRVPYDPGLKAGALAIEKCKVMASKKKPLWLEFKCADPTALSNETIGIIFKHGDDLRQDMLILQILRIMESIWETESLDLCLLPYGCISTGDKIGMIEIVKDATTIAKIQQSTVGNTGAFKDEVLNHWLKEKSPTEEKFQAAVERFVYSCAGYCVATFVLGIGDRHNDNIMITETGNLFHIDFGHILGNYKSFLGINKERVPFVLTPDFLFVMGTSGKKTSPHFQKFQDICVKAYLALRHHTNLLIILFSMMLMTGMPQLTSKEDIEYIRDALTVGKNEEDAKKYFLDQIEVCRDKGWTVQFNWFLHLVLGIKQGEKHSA
human PI3K isoform beta (p110 beta), sequence (P42338 whole entry, canonical isoform): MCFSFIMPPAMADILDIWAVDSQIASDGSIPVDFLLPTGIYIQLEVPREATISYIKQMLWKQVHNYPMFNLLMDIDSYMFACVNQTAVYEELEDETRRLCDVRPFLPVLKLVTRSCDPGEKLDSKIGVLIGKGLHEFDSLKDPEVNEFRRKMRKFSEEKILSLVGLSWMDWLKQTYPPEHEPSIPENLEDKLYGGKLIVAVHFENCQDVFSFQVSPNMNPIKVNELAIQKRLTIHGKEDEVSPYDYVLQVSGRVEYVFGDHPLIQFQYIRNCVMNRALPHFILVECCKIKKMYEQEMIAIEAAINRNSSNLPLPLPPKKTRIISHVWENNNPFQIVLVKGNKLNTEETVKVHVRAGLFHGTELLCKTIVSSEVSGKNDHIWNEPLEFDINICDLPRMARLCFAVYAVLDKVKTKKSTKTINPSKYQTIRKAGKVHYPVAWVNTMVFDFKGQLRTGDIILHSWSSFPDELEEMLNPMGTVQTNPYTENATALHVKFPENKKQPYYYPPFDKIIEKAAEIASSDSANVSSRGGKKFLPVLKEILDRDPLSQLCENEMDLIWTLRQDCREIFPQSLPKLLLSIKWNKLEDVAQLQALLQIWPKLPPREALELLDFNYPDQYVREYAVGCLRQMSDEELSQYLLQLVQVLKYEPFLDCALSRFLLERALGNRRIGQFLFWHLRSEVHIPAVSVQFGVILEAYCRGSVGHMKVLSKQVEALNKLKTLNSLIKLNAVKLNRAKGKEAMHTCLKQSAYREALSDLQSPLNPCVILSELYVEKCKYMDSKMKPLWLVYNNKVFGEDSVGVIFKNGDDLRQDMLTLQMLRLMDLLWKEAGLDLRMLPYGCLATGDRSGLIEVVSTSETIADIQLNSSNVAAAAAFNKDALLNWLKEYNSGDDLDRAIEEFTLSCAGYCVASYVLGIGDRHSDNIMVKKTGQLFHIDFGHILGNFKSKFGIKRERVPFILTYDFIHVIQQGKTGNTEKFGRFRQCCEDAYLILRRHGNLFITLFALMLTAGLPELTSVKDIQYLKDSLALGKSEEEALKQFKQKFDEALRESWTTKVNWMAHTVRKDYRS
human PI3K isoform beta (p110 beta), sequence (P27986 whole entry partner, canonical isoform): as the sequence (P27986 whole entry partner, canonical isoform) above

In the case of CC(=O)N1CCN(Cc2cc3nc(-c4cccc5[nH]ncc45)nc(N4CCOCC4)c3s2)CC1 [Compound 54, 1-(4-((2-(1H-indazol-4-yl)-4-morpholinothieno[3,2-d]pyrimidin-6-yl)methyl)piperazin-1-yl)ethanone], the “alpha/beta (fold potency over beta relative to alpha)” value [1] is reported as under 10 fold, the “alpha/delta (fold potency over delta relative to alpha)” value [2] is reported as under 10 fold and the “alpha/gamma (fold potency over gamma relative to alpha)” value [3] is reported as over 10 fold.
In the case of Cc1nc2ccccc2n1-c1nc(N2CCOCC2)c2cc(CN3CCN(S(C)(=O)=O)CC3)sc2n1 [Compound 16, 2-(2-methyl-1H-benzo[d]imidazol-1-yl)-6-((4-methylsulfonylpiperazin-1-yl)methyl)-4-morpholinothieno[2,3-d]pyrimidine], the “alpha/beta (fold potency over beta relative to alpha)” value [1] is reported as over 10 fold, the “alpha/delta (fold potency over delta relative to alpha)” value [2] is reported as under 10 fold and the “alpha/gamma (fold potency over gamma relative to alpha)” value [3] is reported as over 10 fold.
In the case of CS(=O)(=O)N1CCN(Cc2cc3nc(-c4cnc5ccccc5c4)nc(N4CCOCC4)c3s2)CC1 [Compound 89, 3-[6-(4-Methanesulfonyl-piperazin-1-ylmethyl)-4-morpholin-yl-thieno[3,2-d]pyrimidin-2-yl]-quinoline], the “alpha/beta (fold potency over beta relative to alpha)” value [1] is reported as over 10 fold, the “alpha/delta (fold potency over delta relative to alpha)” value [2] is reported as over 10 fold and the “alpha/gamma (fold potency over gamma relative to alpha)” value [3] is reported as over 10 fold.
For c1cc(-c2nc(N3CCOCC3)c3sc(CN4CCC(Cn5cccn5)CC4)cc3n2)c2cn[nH]c2c1 [Compound 62, 6-((4-((1H-pyrazol-1-yl)methyl)piperidin-1-yl)methyl)-2-(1H-indazol-4-yl)-4-morpholinothieno[3,2-d]pyrimidine], the “alpha/beta (fold potency over beta relative to alpha)” value [1] was over 10 fold, the “alpha/delta (fold potency over delta relative to alpha)” value [2] was under 10 fold and the “alpha/gamma (fold potency over gamma relative to alpha)” value [3] was over 10 fold.
For C[C@H]1CN(Cc2cc3nc(-c4cccc5[nH]ncc45)nc(N4CCOCC4)c3s2)CCN1S(C)(=O)=O [Compound 4, 2-(1H-indazol-4-yl)-6-(((3S,5R)-3-methyl-4-methylsulfonylpiperazin-1-yl)methyl)-4-morpholinothieno[3,2-d]pyrimidine], the “alpha/beta (fold potency over beta relative to alpha)” value [1] was over 10 fold, the “alpha/delta (fold potency over delta relative to alpha)” value [2] was under 10 fold and the “alpha/gamma (fold potency over gamma relative to alpha)” value [3] was over 10 fold.
In the case of CN(Cc1cc2nc(-c3cccc4[nH]ncc34)nc(N3CCOCC3)c2s1)CC1CCCN1S(C)(=O)=O (stereo not drawn) [Compound 59, N-((2-(1H-indazol-4-yl)-4-morpholinothieno[3,2-d]pyrimidin-6-yl)methyl)-N-methyl(1-methylsulfonylpyrrolidin-2-yl)methanamine], the “alpha/beta (fold potency over beta relative to alpha)” value [1] is reported as over 10 fold, the “alpha/delta (fold potency over delta relative to alpha)” value [2] is reported as under 10 fold and the “alpha/gamma (fold potency over gamma relative to alpha)” value [3] is reported as over 10 fold.
With CS(=O)(=O)N1CCN(Cc2cc3c(N4CCOCC4)nc(-c4cnc5ccccc5c4)nc3s2)CC1 [Compound 95, 3-[6-(4-Methanesulfonyl-piperazin-1-ylmethyl)-4-morpholin-4-yl-thieno[2,3-d]pyrimidin-2-yl]-quinoline] the “alpha/beta (fold potency over beta relative to alpha)” value [1] was over 10 fold, the “alpha/delta (fold potency over delta relative to alpha)” value [2] was over 10 fold and the “alpha/gamma (fold potency over gamma relative to alpha)” value [3] was over 10 fold.
With C[C@@H]1CN(S(C)(=O)=O)C[C@H](C)N1Cc1cc2nc(-c3cccc4[nH]ncc34)nc(N3CCOCC3)c2s1 [Compound 7, 6-(((2R,6S)-4-methylsulfonyl-2,6-dimethylpiperazin-1-yl)methyl)-2-(1H-indazol-4-yl)-4-morpholinothieno[3,2-d]pyrimidine] the “alpha/beta (fold potency over beta relative to alpha)” value [1] was over 10 fold, the “alpha/delta (fold potency over delta relative to alpha)” value [2] was under 10 fold and the “alpha/gamma (fold potency over gamma relative to alpha)” value [3] was over 10 fold.
With CS(=O)(=O)N1CCN(Cc2cc3c(N4CCOCC4)nc(-c4cccc5[nH]ncc45)nc3o2)CC1 [Compound 141, 2-(1H-indazol-4-yl)-6-((4-methylsulfonylpiperazin-1-yl)methyl)-4-morpholinofuro[2,3-d]pyrimidine] the “alpha/beta (fold potency over beta relative to alpha)” value [1] was under 10 fold, the “alpha/delta (fold potency over delta relative to alpha)” value [2] was under 10 fold and the “alpha/gamma (fold potency over gamma relative to alpha)” value [3] was over 10 fold.
With Cc1nc2cc(-c3nc(N4CCOCC4)c4sc(CN5CCN(S(C)(=O)=O)CC5)cc4n3)ccc2[nH]1 [Compound 157, 6-(4-Methanesulfonyl-piperazin-1-ylmethyl)-2-(2-methyl-1H-benzoimidazol-5-yl)-4-morpholin-4-yl-thieno[3,2-d]pyrimidine] the “alpha/beta (fold potency over beta relative to alpha)” value [1] was over 10 fold, the “alpha/delta (fold potency over delta relative to alpha)” value [2] was under 10 fold and the “alpha/gamma (fold potency over gamma relative to alpha)” value [3] was over 10 fold.
For CS(=O)(=O)N1CCN(Cc2cc3nc(-c4cnc5[nH]ccc5c4)nc(N4CCOCC4)c3s2)CC1 [Compound 133, 6-((4-methylsulfonylpiperazin-1-yl)methyl)-4-morpholino-2-(1H-pyrrolo[2,3-b]pyridin-5-yl)thieno[3,2-d]pyrimidine], the “alpha/beta (fold potency over beta relative to alpha)” value [1] was over 10 fold, the “alpha/delta (fold potency over delta relative to alpha)” value [2] was under 10 fold and the “alpha/gamma (fold potency over gamma relative to alpha)” value [3] was over 10 fold.
In the case of COCCN(Cc1cc2nc(-c3cccc4[nH]ncc34)nc(N3CCOCC3)c2s1)C1CCN(S(C)(=O)=O)CC1 [Compound 34, N-((2-(1H-indazol-4-yl)-4-morpholinothieno[3,2-d]pyrimidin-6-yl)methyl)-N-(2-methoxyethyl)-1-methylsulfonylpiperidin-4-amine], the “alpha/beta (fold potency over beta relative to alpha)” value [1] is reported as over 10 fold, the “alpha/delta (fold potency over delta relative to alpha)” value [2] is reported as under 10 fold and the “alpha/gamma (fold potency over gamma relative to alpha)” value [3] is reported as over 10 fold.
In the case of CS(=O)(=O)N1CCN(Cc2cc3c(N4CCOCC4)nc(-c4cnc5[nH]cnc5c4)nc3s2)CC1 [Compound 147], the “alpha/beta (fold potency over beta relative to alpha)” value [1] is reported as over 10 fold, the “alpha/delta (fold potency over delta relative to alpha)” value [2] is reported as over 10 fold and the “alpha/gamma (fold potency over gamma relative to alpha)” value [3] is reported as over 10 fold.
In the case of CS(=O)(=O)N1CCN(Cc2cc3nc(-c4cccc5[nH]ncc45)nc(N4CCOCC4)c3o2)CC1 [Compound 2, 2-(1H-indazol-4-yl)-6-((4-methylsulfonylpiperazin-1-yl)methyl)-4-morpholinofuro[3,2-d]pyrimidine], the “alpha/beta (fold potency over beta relative to alpha)” value [1] is reported as over 10 fold, the “alpha/delta (fold potency over delta relative to alpha)” value [2] is reported as under 10 fold and the “alpha/gamma (fold potency over gamma relative to alpha)” value [3] is reported as over 10 fold.
With CN(Cc1cc2nc(-c3cccc4[nH]ncc34)nc(N3CCOCC3)c2s1)C1CCN(S(C)(=O)=O)C1 (stereo not drawn) [Compound 60, N-((2-(1H-indazol-4-yl)-4-morpholinothieno[3,2-d]pyrimidin-6-yl)methyl)-N-methyl-(1-methylsulfonylpyrrolidin)-3-amine] the “alpha/beta (fold potency over beta relative to alpha)” value [1] was over 10 fold, the “alpha/delta (fold potency over delta relative to alpha)” value [2] was under 10 fold and the “alpha/gamma (fold potency over gamma relative to alpha)” value [3] was over 10 fold.
CN(C1CCN(Cc2cc3nc(-c4cccc5[nH]ncc45)nc(N4CCOCC4)c3s2)C1)S(C)(=O)=O (stereo not drawn) [Compound 58, 1-((2-(1H-indazol-4-yl)-4-morpholinothieno[3,2-d]pyrimidin-6-yl)methyl)-N-methyl-N-methylsulfonylpyrrolidin-3-amine] was tested, and the “alpha/beta (fold potency over beta relative to alpha)” value [1] was over 10 fold, the “alpha/delta (fold potency over delta relative to alpha)” value [2] was under 10 fold and the “alpha/gamma (fold potency over gamma relative to alpha)” value [3] was over 10 fold.
For CS(=O)(=O)N1CCN(Cc2cc3c(N4CCOCC4)nc(-c4cccc5[nH]ncc45)nc3s2)CC1 [Compound 57, 2-(1H-indazol-4-yl)-6-((4-methylsulfonylpiperazin-1-yl)methyl)-4-morpholinothieno[2,3-d]pyrimidine], the “alpha/beta (fold potency over beta relative to alpha)” value [1] was over 10 fold, the “alpha/delta (fold potency over delta relative to alpha)” value [2] was under 10 fold and the “alpha/gamma (fold potency over gamma relative to alpha)” value [3] was over 10 fold.
C[C@H](O)C(=O)N1CCN(Cc2cc3nc(-c4cccc5[nH]ncc45)nc(N4CCOCC4)c3s2)CC1 [Compound 66, (S)-1-(4-((2-(1H-indazol-4-yl)-4-morpholinothieno[3,2-d]pyrimidin-6-yl)methyl)piperazin-1-yl)-2-hydroxypropan-1-one] was tested, and the “alpha/beta (fold potency over beta relative to alpha)” value [1] was under 10 fold, the “alpha/delta (fold potency over delta relative to alpha)” value [2] was under 10 fold and the “alpha/gamma (fold potency over gamma relative to alpha)” value [3] was over 10 fold.
OC1CCCN(Cc2cc3nc(-c4cccc5[nH]ncc45)nc(N4CCOCC4)c3s2)C1 (stereo not drawn) [Compound 65, 1-((2-(1H-indazol-4-yl)-4-morpholinothieno[3,2-d]pyrimidin-6-yl)methyl)piperidin-3-ol] was tested, and the “alpha/beta (fold potency over beta relative to alpha)” value [1] was under 10 fold, the “alpha/delta (fold potency over delta relative to alpha)” value [2] was under 10 fold and the “alpha/gamma (fold potency over gamma relative to alpha)” value [3] was over 10 fold.
In the case of CS(=O)(=O)N1CCN(Cc2cc3c(N4CCOCC4)nc(-c4cncc5ccccc45)nc3s2)CC1 [Compound 94, 4-[6-(4-Methanesulfonyl-piperazin-1-ylmethyl)-4-morpholin-4-yl-thieno[2,3-d]pyrimidin-2-yl]-isoquinoline], the “alpha/beta (fold potency over beta relative to alpha)” value [1] is reported as over 10 fold, the “alpha/delta (fold potency over delta relative to alpha)” value [2] is reported as under 10 fold and the “alpha/gamma (fold potency over gamma relative to alpha)” value [3] is reported as over 10 fold.
With CN1CCN(S(=O)(=O)C2CCN(Cc3cc4nc(-c5cccc6[nH]ncc56)nc(N5CCOCC5)c4s3)CC2)CC1 [Compound 24, 2-(1H-indazol-4-yl)-6-((4-N-4-methylpiperazinosulfonylpiperidin-1-yl)methyl)-4-morpholinothieno[3,2-d]pyrimidine] the “alpha/beta (fold potency over beta relative to alpha)” value [1] was over 10 fold, the “alpha/delta (fold potency over delta relative to alpha)” value [2] was under 10 fold and the “alpha/gamma (fold potency over gamma relative to alpha)” value [3] was over 10 fold.
